The values below come from ChEMBL document CHEMBL1201862, “PubChem BioAssay data set” (2004).

One experiment has as its target Aspartyl aminopeptidase (Plasmodium falciparum 3D7, UniProt Q8I2J3). Put plainly: Counterscreen for inhibitors of M1 and M17 aminopeptidases: QFRET-based biochemical high throughput dose response assay for inhibitors of the Plasmodium falciparum M18 Aspartyl Aminopeptidase (PFM18AAP). [Related PubChem assays: 1619 (Screening assay (M17LAP inhibitors).), 1445 (Screening assay (M1AAP inhibitors).)]. A general note: Counterscreens check selectivity or assay interference.

The target of a further experiment is T1, Aminopeptidase N (Plasmodium falciparum FcB1/Columbia, UniProt O96935).
T1 sequence (O96935 whole entry): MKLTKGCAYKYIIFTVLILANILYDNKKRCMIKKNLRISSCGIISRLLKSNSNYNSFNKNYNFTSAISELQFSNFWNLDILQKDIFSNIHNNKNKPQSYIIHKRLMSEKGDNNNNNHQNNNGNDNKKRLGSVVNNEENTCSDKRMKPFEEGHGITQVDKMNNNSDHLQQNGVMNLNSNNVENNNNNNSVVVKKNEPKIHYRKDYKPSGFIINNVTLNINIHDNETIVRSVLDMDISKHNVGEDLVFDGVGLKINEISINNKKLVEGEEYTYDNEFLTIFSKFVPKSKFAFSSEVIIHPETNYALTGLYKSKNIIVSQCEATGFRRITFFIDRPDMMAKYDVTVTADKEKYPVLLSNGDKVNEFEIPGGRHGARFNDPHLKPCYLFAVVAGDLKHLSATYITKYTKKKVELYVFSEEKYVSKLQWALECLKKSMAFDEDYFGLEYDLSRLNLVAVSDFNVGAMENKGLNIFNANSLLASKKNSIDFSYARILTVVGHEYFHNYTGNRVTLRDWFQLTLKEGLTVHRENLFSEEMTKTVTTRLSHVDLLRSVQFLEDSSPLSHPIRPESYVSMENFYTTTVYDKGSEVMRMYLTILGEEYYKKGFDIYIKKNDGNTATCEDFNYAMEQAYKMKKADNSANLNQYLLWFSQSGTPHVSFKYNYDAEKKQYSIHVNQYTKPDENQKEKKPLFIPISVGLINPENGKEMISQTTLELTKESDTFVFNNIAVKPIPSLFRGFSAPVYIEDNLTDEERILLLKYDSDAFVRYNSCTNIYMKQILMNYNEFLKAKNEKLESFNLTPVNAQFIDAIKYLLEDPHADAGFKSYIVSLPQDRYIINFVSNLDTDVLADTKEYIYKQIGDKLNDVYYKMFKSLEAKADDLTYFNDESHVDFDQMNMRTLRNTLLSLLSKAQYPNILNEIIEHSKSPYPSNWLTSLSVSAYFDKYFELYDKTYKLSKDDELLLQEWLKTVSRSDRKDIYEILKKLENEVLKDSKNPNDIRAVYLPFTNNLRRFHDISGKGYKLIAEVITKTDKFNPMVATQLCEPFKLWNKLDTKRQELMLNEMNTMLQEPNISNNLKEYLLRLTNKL
Put plainly: P. falciparum M1AAP inhibitors, biochemical, fluorogenic H-Leu-NHMec substrate, 1536-well (AID 1445). Set-up: species or system Plasmodium falciparum 3D7, 3D7.

Another experiment deals with Procathepsin L (Homo sapiens, UniProt P07711). The experiment is described as follows: cathepsin L inhibitors, dose response, counter-screen for M1/M17 aminopeptidase inhibitor project, biochemical, QFRET, 1536-well (AID 2214).
In experiment [1] the target is T2, Induced myeloid leukemia cell differentiation protein Mcl-1 (Homo sapiens, UniProt Q07820). The experiment is described as follows: MCL1-BIM BH3 interaction inhibitors, dose response, biochemical, fluorescence polarization, BIM-BH3 peptide, 1536-well (AID 2217). (In general: In fluorescence polarisation assays a small probe gives low polarisation when free and higher when bound to something large.)

In a further experiment the target is Bcl-2-like protein 1 (Homo sapiens, UniProt Q07817). Put plainly: BCL-XL inhibitors, dose response, selectivity assay for MCL1 inhibitor project, biochemical, fluorescence polarization, 1536-well (AID 2218).
Experiment [2] concerns the target T2, Induced myeloid leukemia cell differentiation protein Mcl-1. The class given is functional.
Experiment [3] addresses DNA (cytosine-5)-methyltransferase 1 (Homo sapiens, UniProt P26358). The experiment is described as follows: DNMT1 methyltransferase inhibitors, confirmation, biochemical, fluorescent molecular beacon (AID 602386). Format: functional.
Experiment [4] deals with T3, Probable nicotinate-nucleotide adenylyltransferase (Staphylococcus aureus (strain N315), UniProt P65502). The class given is functional, Staphylococcus aureus subsp. aureus N315.
For experiment [5], the target named is T3, Probable nicotinate-nucleotide adenylyltransferase. Format: functional, Staphylococcus aureus subsp. aureus N315. The note with it: read-out: IC50_Mean.
For the next experiment, the target named is Albumin (Bos taurus, UniProt P02769). Put plainly: Counterscreen for inhibitors of T-cell receptor (TCR)-CD3 interaction: Fluorescence-based biochemical high throughput dose response assay to identify inhibitors of T-cell receptor (TCR)-CD3 interaction using a TAMRA-labeled BSA probe. Format: functional.
The target of another experiment is NADPH oxidase 1 (Homo sapiens, UniProt Q9Y5S8). The experiment is described as follows: Luminescence-based cell-based dose response assay to identify inhibitors of NADPH oxidase 1 (NOX1). The class given is functional.
Experiment [6] addresses T4, Rac GTPase-activating protein 1 (Homo sapiens, UniProt Q9H0H5).
T4 sequence (Q9H0H5 whole entry): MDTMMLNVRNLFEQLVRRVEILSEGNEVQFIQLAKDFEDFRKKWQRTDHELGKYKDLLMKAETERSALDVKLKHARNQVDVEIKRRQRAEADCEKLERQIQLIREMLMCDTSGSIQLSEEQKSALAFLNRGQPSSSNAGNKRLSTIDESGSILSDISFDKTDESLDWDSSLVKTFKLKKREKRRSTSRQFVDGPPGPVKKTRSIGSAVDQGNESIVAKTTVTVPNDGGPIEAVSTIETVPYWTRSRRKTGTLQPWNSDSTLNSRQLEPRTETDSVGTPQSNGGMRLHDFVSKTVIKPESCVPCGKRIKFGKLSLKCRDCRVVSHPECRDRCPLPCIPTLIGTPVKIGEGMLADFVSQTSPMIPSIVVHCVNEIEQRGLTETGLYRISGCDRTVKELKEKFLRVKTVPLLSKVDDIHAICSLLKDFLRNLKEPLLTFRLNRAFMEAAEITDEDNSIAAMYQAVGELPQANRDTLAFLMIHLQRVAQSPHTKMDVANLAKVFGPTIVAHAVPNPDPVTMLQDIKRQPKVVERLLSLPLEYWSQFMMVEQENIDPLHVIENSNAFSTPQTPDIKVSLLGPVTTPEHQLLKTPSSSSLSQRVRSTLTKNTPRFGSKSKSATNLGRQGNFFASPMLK
The experiment is described as follows: MgcRacGAP GTPase-activating activity inhibitors, confirmation, biochemical, ADP Hunter fluorescence, primary and confirmatory (AID 624330). Format: functional.

Experiment [7] has as its target T5, Estrogen receptor beta (Homo sapiens, UniProt Q92731).
The target in experiment [8] is T5, Estrogen receptor beta. Put plainly: ERβ–SRC-3 coactivator interaction inhibitors, confirmation, orthogonal assay, biochemical, ELISA, streptavidin-HRP readout (AID 1060).
Experiment [9] concerns the target Low molecular weight phosphotyrosine protein phosphatase (Homo sapiens, UniProt P24666). Format: functional. The note with it: read-out: IC50_Mean.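 Note: Dose-response confirmation assay measuring inhibition of LMPTP enzyme activity by fluorescence intensity read-out.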
The target in another experiment is Estrogen receptor (Homo sapiens, UniProt P03372).
Experiment [10] in a line: A High Throughput Confirmatory Assay used to Identify Novel Compounds that Inhibit Mycobacterium Tuberculosis in the absence of Glycerol. Format: functional.
Experiment [11] is described as follows: M. tuberculosis growth inhibition, HTS (AID 449762). Format: functional.
A short description of experiment [12]: microbe, parasite or virus in culture. Particulars: Mycobacterium tuberculosis. Format: functional.
The next experiment has as its system Vero. Put plainly: West Nile virus antiviral activity, cell-based, CPE readout (AID 1621). The note with it: Chlorocebus sabaeus. The class given is functional.

Activity calls are given as the source filed them.

T2 sequence (Q07820 whole entry): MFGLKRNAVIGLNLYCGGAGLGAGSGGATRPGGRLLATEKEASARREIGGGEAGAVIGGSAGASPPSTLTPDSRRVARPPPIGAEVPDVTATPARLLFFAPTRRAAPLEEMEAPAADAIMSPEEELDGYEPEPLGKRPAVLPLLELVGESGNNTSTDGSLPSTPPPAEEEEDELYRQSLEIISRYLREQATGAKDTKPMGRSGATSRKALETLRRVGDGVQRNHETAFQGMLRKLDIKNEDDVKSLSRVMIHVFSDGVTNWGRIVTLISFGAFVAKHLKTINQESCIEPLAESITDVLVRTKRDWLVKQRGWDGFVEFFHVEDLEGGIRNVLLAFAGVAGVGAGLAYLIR
T5 sequence (Q92731 whole entry): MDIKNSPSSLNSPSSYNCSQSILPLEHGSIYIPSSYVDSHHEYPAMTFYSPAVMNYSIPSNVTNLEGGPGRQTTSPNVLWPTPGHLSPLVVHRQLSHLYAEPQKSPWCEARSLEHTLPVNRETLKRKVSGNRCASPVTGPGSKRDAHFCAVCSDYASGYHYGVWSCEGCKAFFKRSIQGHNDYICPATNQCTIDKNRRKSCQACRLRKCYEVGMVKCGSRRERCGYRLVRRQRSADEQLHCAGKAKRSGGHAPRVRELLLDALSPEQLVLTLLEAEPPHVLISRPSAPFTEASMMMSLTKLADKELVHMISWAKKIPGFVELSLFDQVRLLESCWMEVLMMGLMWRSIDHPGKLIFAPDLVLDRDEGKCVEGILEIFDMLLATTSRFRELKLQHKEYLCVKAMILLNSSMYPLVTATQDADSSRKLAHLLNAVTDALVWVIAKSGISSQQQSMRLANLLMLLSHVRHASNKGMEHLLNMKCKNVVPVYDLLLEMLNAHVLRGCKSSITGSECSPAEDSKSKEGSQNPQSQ
T3 sequence (P65502 whole entry): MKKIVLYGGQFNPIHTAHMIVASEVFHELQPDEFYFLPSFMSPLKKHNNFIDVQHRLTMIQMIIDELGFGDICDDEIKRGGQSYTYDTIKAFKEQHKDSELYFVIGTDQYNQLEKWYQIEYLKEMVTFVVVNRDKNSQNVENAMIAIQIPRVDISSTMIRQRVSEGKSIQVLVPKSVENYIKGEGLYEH
Estrogen receptor, sequence (P03372 whole entry): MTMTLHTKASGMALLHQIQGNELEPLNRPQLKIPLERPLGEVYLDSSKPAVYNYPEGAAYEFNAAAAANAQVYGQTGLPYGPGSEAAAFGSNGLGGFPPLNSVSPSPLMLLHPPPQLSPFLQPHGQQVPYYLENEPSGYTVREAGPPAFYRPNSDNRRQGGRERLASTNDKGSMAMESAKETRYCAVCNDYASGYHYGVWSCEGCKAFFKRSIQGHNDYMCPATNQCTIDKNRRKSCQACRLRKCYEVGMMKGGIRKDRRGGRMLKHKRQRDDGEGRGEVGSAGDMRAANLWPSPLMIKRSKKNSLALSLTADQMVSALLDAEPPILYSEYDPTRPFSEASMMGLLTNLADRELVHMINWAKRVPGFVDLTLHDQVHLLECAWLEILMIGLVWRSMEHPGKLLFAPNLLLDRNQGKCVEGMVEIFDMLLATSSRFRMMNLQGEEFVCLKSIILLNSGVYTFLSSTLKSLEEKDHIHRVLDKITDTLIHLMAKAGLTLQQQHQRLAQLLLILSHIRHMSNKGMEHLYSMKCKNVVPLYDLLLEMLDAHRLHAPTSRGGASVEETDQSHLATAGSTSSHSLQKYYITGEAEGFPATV
Procathepsin L, sequence (P07711 whole entry): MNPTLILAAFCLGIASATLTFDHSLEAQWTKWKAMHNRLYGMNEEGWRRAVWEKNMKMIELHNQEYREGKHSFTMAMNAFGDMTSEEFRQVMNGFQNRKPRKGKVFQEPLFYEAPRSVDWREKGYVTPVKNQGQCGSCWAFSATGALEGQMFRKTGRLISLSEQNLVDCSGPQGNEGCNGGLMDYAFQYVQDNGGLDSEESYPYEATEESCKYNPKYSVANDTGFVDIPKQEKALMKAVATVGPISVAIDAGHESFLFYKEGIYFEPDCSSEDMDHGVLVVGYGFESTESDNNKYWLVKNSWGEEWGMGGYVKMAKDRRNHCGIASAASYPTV
NADPH oxidase 1, sequence (Q9Y5S8 whole entry): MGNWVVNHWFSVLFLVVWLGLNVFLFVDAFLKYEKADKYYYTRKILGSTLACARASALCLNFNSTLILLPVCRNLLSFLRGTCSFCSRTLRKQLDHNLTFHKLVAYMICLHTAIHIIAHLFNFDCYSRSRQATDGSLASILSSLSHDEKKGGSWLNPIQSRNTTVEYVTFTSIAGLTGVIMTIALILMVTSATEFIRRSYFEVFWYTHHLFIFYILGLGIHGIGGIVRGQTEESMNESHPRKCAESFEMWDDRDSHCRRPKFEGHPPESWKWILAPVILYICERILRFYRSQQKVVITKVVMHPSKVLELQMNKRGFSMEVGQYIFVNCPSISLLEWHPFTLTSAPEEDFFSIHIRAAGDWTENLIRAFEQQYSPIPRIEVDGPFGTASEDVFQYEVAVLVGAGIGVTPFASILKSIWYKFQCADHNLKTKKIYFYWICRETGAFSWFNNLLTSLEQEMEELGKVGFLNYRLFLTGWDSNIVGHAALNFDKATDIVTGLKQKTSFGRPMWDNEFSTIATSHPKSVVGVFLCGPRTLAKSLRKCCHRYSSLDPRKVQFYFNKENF
Low molecular weight phosphotyrosine protein phosphatase, sequence (P24666 whole entry): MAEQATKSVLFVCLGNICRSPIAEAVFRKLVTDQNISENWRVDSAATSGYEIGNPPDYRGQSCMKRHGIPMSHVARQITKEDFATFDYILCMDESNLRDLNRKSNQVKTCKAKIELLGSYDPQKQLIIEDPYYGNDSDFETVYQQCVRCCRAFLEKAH
Bcl-2-like protein 1, sequence (Q07817 whole entry): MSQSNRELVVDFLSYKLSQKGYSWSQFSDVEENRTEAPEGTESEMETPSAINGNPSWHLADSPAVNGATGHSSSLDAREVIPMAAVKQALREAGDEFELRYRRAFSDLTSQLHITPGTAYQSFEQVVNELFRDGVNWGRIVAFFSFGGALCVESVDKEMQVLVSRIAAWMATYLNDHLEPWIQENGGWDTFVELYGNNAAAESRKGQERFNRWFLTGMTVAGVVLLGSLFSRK
DNA (cytosine-5)-methyltransferase 1, sequence (P26358 whole entry): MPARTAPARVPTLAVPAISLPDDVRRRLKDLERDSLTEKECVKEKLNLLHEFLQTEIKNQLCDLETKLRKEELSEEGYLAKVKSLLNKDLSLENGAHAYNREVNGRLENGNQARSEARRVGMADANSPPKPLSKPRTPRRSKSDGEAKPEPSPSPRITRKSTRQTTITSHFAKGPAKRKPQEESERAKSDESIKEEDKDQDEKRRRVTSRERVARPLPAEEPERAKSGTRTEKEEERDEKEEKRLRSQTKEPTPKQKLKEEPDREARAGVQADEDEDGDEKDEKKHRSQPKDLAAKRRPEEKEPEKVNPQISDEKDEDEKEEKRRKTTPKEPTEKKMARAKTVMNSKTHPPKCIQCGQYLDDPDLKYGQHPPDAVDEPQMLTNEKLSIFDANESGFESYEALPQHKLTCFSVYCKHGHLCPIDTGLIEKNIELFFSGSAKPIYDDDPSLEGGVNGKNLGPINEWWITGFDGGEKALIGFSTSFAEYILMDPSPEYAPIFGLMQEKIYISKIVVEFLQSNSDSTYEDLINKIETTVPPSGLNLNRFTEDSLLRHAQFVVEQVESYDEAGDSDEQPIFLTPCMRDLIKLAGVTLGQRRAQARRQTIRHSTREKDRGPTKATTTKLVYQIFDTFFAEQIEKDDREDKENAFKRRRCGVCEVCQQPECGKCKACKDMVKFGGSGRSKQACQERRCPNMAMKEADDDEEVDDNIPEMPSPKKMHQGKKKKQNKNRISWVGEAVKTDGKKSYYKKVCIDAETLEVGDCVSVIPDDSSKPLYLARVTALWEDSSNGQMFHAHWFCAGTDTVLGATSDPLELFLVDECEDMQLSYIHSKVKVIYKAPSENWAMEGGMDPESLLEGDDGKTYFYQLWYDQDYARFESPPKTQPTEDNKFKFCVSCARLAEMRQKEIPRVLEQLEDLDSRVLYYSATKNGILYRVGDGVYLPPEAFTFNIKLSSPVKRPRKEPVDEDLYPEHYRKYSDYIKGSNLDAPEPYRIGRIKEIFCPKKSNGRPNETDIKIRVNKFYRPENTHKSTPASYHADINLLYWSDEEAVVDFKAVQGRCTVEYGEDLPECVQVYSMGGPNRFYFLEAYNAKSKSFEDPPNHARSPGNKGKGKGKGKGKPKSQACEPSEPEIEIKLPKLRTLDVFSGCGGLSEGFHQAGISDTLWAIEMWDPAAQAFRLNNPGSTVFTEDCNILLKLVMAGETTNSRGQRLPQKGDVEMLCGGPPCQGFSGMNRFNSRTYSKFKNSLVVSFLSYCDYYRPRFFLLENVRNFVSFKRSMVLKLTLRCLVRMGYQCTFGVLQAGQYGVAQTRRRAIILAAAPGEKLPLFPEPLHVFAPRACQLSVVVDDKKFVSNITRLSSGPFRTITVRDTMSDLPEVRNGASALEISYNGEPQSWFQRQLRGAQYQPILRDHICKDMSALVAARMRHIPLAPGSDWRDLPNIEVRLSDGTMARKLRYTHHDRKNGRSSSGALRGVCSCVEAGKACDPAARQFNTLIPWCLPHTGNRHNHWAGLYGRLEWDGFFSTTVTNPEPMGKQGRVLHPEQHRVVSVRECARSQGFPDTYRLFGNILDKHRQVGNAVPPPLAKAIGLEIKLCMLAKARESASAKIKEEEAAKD

In the case of `O=C(NCc1ccc2c(c1)OCO2)C1CCN(S(=O)(=O)c2ccc(Br)s2)CC1`, the IC50 was > 73.5 µM (not active) against Aspartyl aminopeptidase, 2.11 µM (active) at Aminopeptidase N and > 59.6 µM (not active) at Procathepsin L.

Turning to `O=C(Nc1cccc(S(=O)(=O)NC2=NCCC2)c1)c1cc(-c2ccco2)nc2ccccc12`, the IC50 was 4.26 µM (active) in experiment [1]; > 109 µM (not active) against Bcl-2-like protein 1; 1.09 µM (active) in experiment [2]; 3.71 µM (active) in experiment [3]; 9.01 µM (active) in [4]; 22.7 µM (active) in [5]. Moreover, at Albumin, the IC50 is > 94.1 µM (inactive).

In the case of `CCN(CC)c1ccc(NC(=O)Nc2ccccc2)cc1`, the IC50 on NADPH oxidase 1 is 0.176 µM (active); in experiment [6] it was 45 µM (active).

In the case of `N=c1c(C(=O)NCc2ccc3c(c2)OCO3)cc2c(=O)n3ccccc3nc2n1Cc1cccnc1`, the IC50 on Estrogen receptor beta [7] is 5.48 µM (active); at Estrogen receptor beta [8], > 50 µM (not active); in experiment [2], 4.3 µM (active); in [9], 17.1 µM (active).

Consider `CN(CC(=O)NC(=O)NCc1ccco1)Cc1nc(O)c2ccccc2n1`, for which, at Estrogen receptor, the IC50 is 13.7 µM (active).

Regarding `COc1ccc(C2c3[nH]c4ccccc4c3CCN2C(=O)c2cc3ncccn3n2)c(F)c1` (stereo unspecified), the IC50 in [10] is > 100 µM (active); in [11] it was > 100 µM (active); in the experiment on Vero, 34.6 µM (active). For the same compound, in experiment [12], the CC50 is > 40 µM (active).
